The source of these data is PubChem BioAssay AID212 (DTP/NCI, 2004).

Values joined by “and” are separate entries in the source; they are usually repeats but may differ in a detail not shown here. Equal values may be shown once. Records with an inconclusive call do not appear.

This experiment concerns BDF1 mice, colon carcinoma 38 sc, T/C %. The experiment is described as follows: NCI In Vivo Anticancer Drug Screen. Data for tumor model Colon Carcinoma 38 (subcutaneous) in B6D2F1 (BDF1) mice. A digest of the protocol: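 Compound antitumor activity was assessed in mice carrying transplantable tumors. Survival or tumor size was recorded, and each value is the treated-group measurement divided by that of the vehicle-treated control group.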

Where [1] appears, read: endpoint: median tumor weight (est.), dose: 25.0 mg/kg/injection, schedule: Q07DX002 (ip), vehicle: saline with Tween-80, higher = larger tumour.
Setting [2] is: endpoint: median tumor weight (est.), dose: 12.5 mg/kg/injection, schedule: Q07DX002 (ip), vehicle: Klucel (hydroxypropylcellulose) (HPC), higher = larger tumour.
The mark [3] stands for this setting: endpoint: median tumor weight (est.), dose: 50.0 mg/kg/injection, schedule: Q07DX002 (ip), vehicle: Klucel (hydroxypropylcellulose) (HPC), higher = larger tumour.
Setting [4] is: endpoint: median tumor weight (est.), dose: 3.12 mg/kg/injection, schedule: Q07DX002 (ip), vehicle: saline, higher = larger tumour.
[5] abbreviates: endpoint: median tumor weight (est.), dose: 6.25 mg/kg/injection, schedule: Q07DX002 (ip), vehicle: saline, higher = larger tumour.
Setting [6] is: endpoint: median tumor weight (est.), dose: 25.0 mg/kg/injection, schedule: Q07DX002 (ip), vehicle: saline, higher = larger tumour.
[7] abbreviates: endpoint: median tumor weight (est.), dose: 25.0 mg/kg/injection, schedule: Q07DX002 (ip), vehicle: Klucel (hydroxypropylcellulose) (HPC), higher = larger tumour.
Setting [8] is: endpoint: median tumor weight (est.), dose: 100.0 mg/kg/injection, schedule: Q07DX002 (ip), vehicle: Klucel (hydroxypropylcellulose) (HPC), higher = larger tumour.
[9] abbreviates: endpoint: median tumor weight (est.), dose: 200.0 mg/kg/injection, schedule: Q07DX002 (ip), vehicle: Klucel (hydroxypropylcellulose) (HPC), higher = larger tumour.
The mark [10] stands for this setting: endpoint: median tumor weight (est.), dose: 50.0 mg/kg/injection, schedule: Q07DX002 (ip), vehicle: saline with Tween-80, higher = larger tumour.
[11] abbreviates: endpoint: median tumor weight (est.), dose: 400.0 mg/kg/injection, schedule: Q07DX002 (ip), vehicle: saline with Tween-80, higher = larger tumour.
Setting [12] is: endpoint: median tumor weight (est.), dose: 400.0 mg/kg/injection, schedule: Q07DX002 (ip), vehicle: Klucel (hydroxypropylcellulose) (HPC), higher = larger tumour.
Setting [13] is: endpoint: median tumor weight (est.), dose: 100.0 mg/kg/injection, schedule: Q07DX002 (ip), vehicle: saline with Tween-80, higher = larger tumour.
Where [14] appears, read: endpoint: median tumor weight (est.), dose: 200.0 mg/kg/injection, schedule: Q07DX002 (ip), vehicle: saline with Tween-80, higher = larger tumour.

With `N[C@H](C(=O)O)[C@@H]1CC(Cl)=NO1`, the T/C was 113 % of control (endpoint: median survival time, dose: 25.9 mg/kg/injection, schedule: Q04DX002 (ip), vehicle: suspension in saline, higher = longer survival); 122 % of control (endpoint: median survival time, dose: 43.2 mg/kg/injection, schedule: Q04DX002 (ip), vehicle: suspension in saline, higher = longer survival); 114 % of control (endpoint: median survival time, dose: 72.0 mg/kg/injection, schedule: Q04DX002 (ip), vehicle: suspension in saline, higher = longer survival); 119 % of control (endpoint: median survival time, dose: 200.0 mg/kg/injection, schedule: Q04DX002 (ip), vehicle: suspension in saline, higher = longer survival); 114 % of control (endpoint: median tumor weight (est.), dose: 1.0 mg/kg/injection, schedule: Q07DX003 (ip), vehicle: saline, higher = larger tumour); 71 % of control and 79 % of control (endpoint: median tumor weight (est.), dose: 2.0 mg/kg/injection, schedule: Q07DX003 (ip), vehicle: saline, higher = larger tumour). For the same compound, the T/C is 86 % of control (endpoint: median tumor weight (est.), dose: 4.0 mg/kg/injection, schedule: Q07DX003 (ip), vehicle: saline, higher = larger tumour); 156 % of control (endpoint: median tumor weight (est.), dose: 8.0 mg/kg/injection, schedule: Q07DX003 (ip), vehicle: saline, higher = larger tumour); 69 % of control (endpoint: median tumor weight (est.), dose: 16.0 mg/kg/injection, schedule: Q07DX003 (ip), vehicle: saline, higher = larger tumour); 69 % of control (endpoint: median tumor weight (est.), dose: 32.0 mg/kg/injection, schedule: Q07DX003 (ip), vehicle: saline, higher = larger tumour); 78 % of control (endpoint: median tumor weight (est.), dose: 64.0 mg/kg/injection, schedule: Q07DX003 (ip), vehicle: saline, higher = larger tumour).

As to `FC(F)(F)c1nc2nc(Cl)c(Cl)nc2[nH]1`, the T/C under setting [1] was 93 % of control.

Take `Cc1cc(C)c(-c2cc(O)c(C)cc2O)c(C)c1`: the T/C by setting is: under setting [2], 83 % of control; under setting [3], 82 % of control.

In the case of `COc1cc2cc[n+](C)c(Cc3ccccc3)c2cc1OC`, the T/C was 113 % of control (endpoint: median tumor weight (est.), dose: 12.5 mg/kg/injection, schedule: Q07DX003 (ip), vehicle: saline, higher = larger tumour); 84 % of control (endpoint: median tumor weight (est.), dose: 25.0 mg/kg/injection, schedule: Q07DX003 (ip), vehicle: saline, higher = larger tumour); 80 % of control (endpoint: median tumor weight (est.), dose: 50.0 mg/kg/injection, schedule: Q07DX003 (ip), vehicle: saline, higher = larger tumour).

For `Cc1c2c(ccc3ccccc32)c[n+]2ccccc12`, the T/C reads like this: under setting [4], 154 % of control; under setting [5], 118 % of control; (endpoint: median tumor weight (est.), dose: 12.5 mg/kg/injection, schedule: Q07DX002 (ip), vehicle: suspension in saline, higher = larger tumour) 102 % of control; under setting [6], 107 % of control; (endpoint: median tumor weight (est.), dose: 25.0 mg/kg/injection, schedule: Q07DX002 (ip), vehicle: suspension in saline, higher = larger tumour) 91 % of control.

For `NS(=O)(=O)c1cc2c(cc1Cl)NC=NS2(=O)=O`, the T/C was 120 % of control (endpoint: median tumor weight (est.), dose: 75.0 mg/kg/injection, schedule: Q07DX002 (ip), vehicle: Klucel (hydroxypropylcellulose) (HPC), higher = larger tumour); 113 % of control (endpoint: median tumor weight (est.), dose: 150.0 mg/kg/injection, schedule: Q07DX002 (ip), vehicle: Klucel (hydroxypropylcellulose) (HPC), higher = larger tumour); 90 % of control (endpoint: median tumor weight (est.), dose: 300.0 mg/kg/injection, schedule: Q07DX002 (ip), vehicle: Klucel (hydroxypropylcellulose) (HPC), higher = larger tumour); 60 % of control (endpoint: median tumor weight (est.), dose: 1200.0 mg/kg/injection, schedule: Q07DX002 (ip), vehicle: Klucel (hydroxypropylcellulose) (HPC), higher = larger tumour).

With `CCN(CC)CCCNc1nccc2c(C)c3[nH]c4ccncc4c3cc12`, the T/C runs as follows: (endpoint: median tumor weight (est.), dose: 0.75 mg/kg/injection, schedule: Q07DX002 (ip), vehicle: acid diluted with saline, higher = larger tumour) 76 % of control; (endpoint: median tumor weight (est.), dose: 0.75 mg/kg/injection, schedule: Q07DX002 (ip), vehicle: other, higher = larger tumour) 120 % of control; (endpoint: median tumor weight (est.), dose: 1.25 mg/kg/injection, schedule: Q07DX002 (ip), vehicle: other, higher = larger tumour) 106 % of control; (endpoint: median tumor weight (est.), dose: 1.5 mg/kg/injection, schedule: Q07DX002 (ip), vehicle: acid diluted with saline, higher = larger tumour) 100 % of control; (endpoint: median tumor weight (est.), dose: 1.5 mg/kg/injection, schedule: Q07DX002 (ip), vehicle: other, higher = larger tumour) 108 % of control; (endpoint: median tumor weight (est.), dose: 3.0 mg/kg/injection, schedule: Q07DX002 (ip), vehicle: acid diluted with saline, higher = larger tumour) 46 % of control. Further, the T/C runs as follows: (endpoint: median tumor weight (est.), dose: 3.0 mg/kg/injection, schedule: Q07DX002 (ip), vehicle: other, higher = larger tumour) 123 % of control; (endpoint: median tumor weight (est.), dose: 6.0 mg/kg/injection, schedule: Q07DX002 (ip), vehicle: acid diluted with saline, higher = larger tumour) 69 % of control; (endpoint: median tumor weight (est.), dose: 6.0 mg/kg/injection, schedule: Q07DX002 (ip), vehicle: other, higher = larger tumour) 66 % of control; (endpoint: median tumor weight (est.), dose: 12.0 mg/kg/injection, schedule: Q07DX002 (ip), vehicle: acid diluted with saline, higher = larger tumour) 51 % of control; (endpoint: median tumor weight (est.), dose: 12.0 mg/kg/injection, schedule: Q07DX002 (ip), vehicle: other, higher = larger tumour) 26 % of control; (endpoint: median tumor weight (est.), dose: 20.0 mg/kg/injection, schedule: Q07DX002 (ip), vehicle: other, higher = larger tumour) 41 % of control.

With `NC(=O)c1ccc[n+](Cc2c(Cl)cccc2Cl)c1`, the T/C was 83 % of control and 94 % of control under setting [4]; 68 % of control under setting [5]; 97 % of control (endpoint: median tumor weight (est.), dose: 12.5 mg/kg/injection, schedule: Q07DX002 (ip), vehicle: saline, higher = larger tumour); 116 % of control and 94 % of control under setting [6]; 85 % of control and 90 % of control (endpoint: median tumor weight (est.), dose: 100.0 mg/kg/injection, schedule: Q07DX002 (ip), vehicle: saline, higher = larger tumour).

For `CCN(CC)CCOC(=O)Cc1cc(OC)cc2c(=O)cc(-c3ccccc3)oc12`, the T/C was 65 % of control under setting [2]; 82 % of control under setting [7]; 56 % of control under setting [3]; 111 % of control under setting [8]; 104 % of control under setting [9].

Consider `CCC(CC)COC(=O)c1ccccc1C(=O)OCC(CC)CC`, for which the T/C under setting [1] was 71 % of control, the T/C under setting [10] is 92 % of control and the T/C under setting [11] was 122 % of control.

As to `Cc1cc(=O)c2cccc(CC(=O)O)c2o1`, the T/C is 119 % of control under setting [8], 114 % of control under setting [9] and 76 % of control under setting [12].

Turning to `COc1cc(O)c2c(O)c3c(c4c2c1[C@]1(C4)C(C)=CCCC1(C)C)[C@H](O)[C@@]1(O)CC(=O)C(C(N)=O)=C(O)[C@@]1(O)C3=O`, the T/C (endpoint: median tumor weight (est.), dose: 6.25 mg/kg/injection, schedule: Q07DX002 (ip), vehicle: saline with Tween-80, higher = larger tumour) was 92 % of control and 97 % of control; the T/C under setting [1] was 87 % of control and 101 % of control.

In the case of `O=C1C(=O)c2ccccc2C(O)=C1CC=C(Cl)Cl`, the T/C reads like this: (endpoint: median tumor weight (est.), dose: 25.0 mg/kg/injection, schedule: Q07DX002 (ip), vehicle: other, higher = larger tumour) 81 % of control; (endpoint: median tumor weight (est.), dose: 50.0 mg/kg/injection, schedule: Q07DX002 (ip), vehicle: other, higher = larger tumour) 90 % of control; (endpoint: median tumor weight (est.), dose: 100.0 mg/kg/injection, schedule: Q07DX002 (ip), vehicle: other, higher = larger tumour) 124 % of control; (endpoint: median tumor weight (est.), dose: 200.0 mg/kg/injection, schedule: Q07DX002 (ip), vehicle: other, higher = larger tumour) 190 % of control.

With `ClC1C(Cl)C(Cl)C(Cl)C(Cl)C1Cl` (stereo unspecified), the T/C runs as follows: under setting [7], 103 % of control; under setting [3], 88 % of control; (endpoint: median tumor weight (est.), dose: 56.0 mg/kg/injection, schedule: Q07DX002 (ip), vehicle: saline with Tween-80, higher = larger tumour) 109 % of control and 95 % of control; under setting [8], 71 % of control; (endpoint: median tumor weight (est.), dose: 112.0 mg/kg/injection, schedule: Q07DX002 (ip), vehicle: saline with Tween-80, higher = larger tumour) 69 % of control and 82 % of control; under setting [9], 113 % of control. Moreover, the T/C is 118 % of control under setting [12]; 80 % of control and 85 % of control (endpoint: median tumor weight (est.), dose: 450.0 mg/kg/injection, schedule: Q07DX002 (ip), vehicle: saline with Tween-80, higher = larger tumour).

Turning to `Nc1ccc2ccc(NS(=O)(=O)N3CCCCC3)cc2c1`, the T/C under setting [13] is 120 % of control, the T/C under setting [14] was 99 % of control and the T/C under setting [11] is 124 % of control.

`CNC(=O)O/N=C(\CN=[N+]=[N-])C(C)(C)C`: under “endpoint: median tumor weight (est.), dose: 1.0 mg/kg/injection, schedule: Q07DX002 (ip), vehicle: saline, higher = larger tumour”, the T/C is 103 % of control.

With `CCCCCCC(=O)/C=C/c1cccc(OCOCC)c1`, the T/C is, setting by setting: under setting [10], 122 % of control; under setting [13], 103 % of control; under setting [14], 104 % of control; under setting [11], 89 % of control.
